In patent publication US11421026B2, “Antibodies that bind human cannabinoid 1 (CB1) receptor” (BIRD ROCK BIO, Inc., priority 2015, dated 2022):

Experiments:
Format in all cases: cell-based
Daudi cells [1] = assay: ADCC assay
Procedure: For ADCC assay, Daudi target cell concentration was adjusted to 12.5×10^4 cells/mL with ADCC medium. 80 μL of cell suspension (1×10^4 viable cells) was added to each well of a round-bottom 96-well plate. Twenty μL of antibody, serially diluted in ADCC medium, was dispensed to each well in triplicate. […] The plate was incubated at 22-25° C. for 30 minutes. PBMC concentration was adjusted with ADCC medium so that by adding […] of PBMC cells to the target cells, the Effector: Target cell ratio were 25:1 and 50:1, respectively. The plate was centrifuged at 250×g for 4 minutes and then incubated at 37° C. 45 minutes prior to harvesting the supernatant, 20 μL of lysis solution from the CytoTox 96 kit (Promega) was added to maximum lysis control wells. After a 5 hour incubation, the plate was centrifuged at 250×g for 4 minutes. 50 μL of supernatant from each well was transfer to a clean flat-bottom 96 well assay plate. 50 μL of substrate from CytoTox 96 kit (Promega) was added to each well and mixed for 30 seconds. The plate was incubated at room temperature for 30 minutes before 50 μL of stop solution was added to each well and mixed for 30 seconds. The absorbance was read at 490 nm. For data analysis: the % lysis is calculated using GraphPad Prism 5.0 to generate the IC50, as follows: […]

Daudi cells [2] = assay: CDC assay; details: 10% complement
Procedure: For CDC assay Daudi target cells were harvested and cell concentration was adjusted to 80×10^4 cells/mL with cell culture medium. To a flat-bottom 96-well white plate, 25 μL/well of cells was added. Then, 12.5 μL/well of P1C4, Rituximab, Anti-HEL-hIgG1, and Anti-HEL-hIgG2, serially diluted in ADCC medium, were added to each well in duplicate. […] The plates were incubated in the hood for 15 minutes. Human complement, diluted with ADCC medium, was added to the plates containing cells at 12.5 μL/well to reach a final concentration of 10%. For the maximum lysis wells, 5 μL of lysis solution was added. The final volume of all the wells was adjusted to 50 μL with ADCC medium. The plates were incubated at 37° C. for 2 hours before 50 μL/well of CTG solution was added to the cells. The plates were shaken on a microplate shaker for 2 minutes at a speed of 200 and then incubated at room temperature for 10 minutes. The luminescence signal was red with Envision. For data analysis, % cytotoxicity and IC50 was calculated using GraphPad Prism 5.0 as follows: […]

[3] = target: T1, human CB1 expressing TRex-CHO cells (Homo sapiens, UniProt P21554); details: forskolin stimulated TRex-CHO CB1 cells
T1 construct: pcDNA4/TO native full length human CB1 receptor construct was transfected into tetracycline inducible system Trex-CHO and Trex-293 cells; expressed in transfected cells
T1 sequence (P21554 whole entry): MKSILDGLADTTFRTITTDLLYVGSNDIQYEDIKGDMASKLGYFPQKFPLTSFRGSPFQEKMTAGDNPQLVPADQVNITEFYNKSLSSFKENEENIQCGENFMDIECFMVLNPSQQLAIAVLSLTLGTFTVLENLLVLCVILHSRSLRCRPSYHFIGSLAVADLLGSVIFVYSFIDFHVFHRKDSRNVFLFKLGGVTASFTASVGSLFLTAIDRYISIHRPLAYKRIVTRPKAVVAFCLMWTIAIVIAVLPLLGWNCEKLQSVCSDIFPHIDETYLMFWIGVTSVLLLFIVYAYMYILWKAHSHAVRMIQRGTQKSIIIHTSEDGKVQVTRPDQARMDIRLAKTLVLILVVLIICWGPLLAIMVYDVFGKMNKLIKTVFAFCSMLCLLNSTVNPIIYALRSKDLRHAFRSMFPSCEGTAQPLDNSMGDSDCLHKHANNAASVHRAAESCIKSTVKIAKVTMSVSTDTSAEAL
Procedure: Data analysis was performed using GraphPad Prism software.
Data analysis was performed using GraphPad Prism.

[4] = target: T2, CB1 surface expression (CB1 TRex-CHO / TRex-293 cells) (Homo sapiens, UniProt P21554); details: antibody 300 nM pre-treatment, 1 μM WIN55,212 1 hour
T2 construct: pcDNA4/TO native full length human CB1 receptor construct was transfected into tetracycline inducible system Trex-CHO and Trex-293 cells; expressed in transfected cells; tetracycline induced
T2 sequence (P21554 whole entry): as above
Procedure: 5×10^5 cells/well stably expressing CB1 TRex-CHO cells were seeded in a 6-well plate. Tetracycline (1 μg/ml) was added to culture medium for 24 hours to induce CB1 expression. On the day of the experiment, cells were serum starved for 2 hours. Cells were then pre-incubated with CB1 antibody (300 nM), AM6545 (CB1 neutral antagonist) and negative control (BRIL binder) for half an hour. […] Surface expression of CB1 was stained with anti-CB1 N-terminus mouse monoclonal antibody from R&D and the mean fluorescence intensity (MFI) was determined using flow cytometry.
The impact of CB1 antibody on receptor internalization was also investigated. […] Cells were harvested and stained with anti-CB1 N-terminus mouse monoclonal antibody (R&D).
On the day of the experiment, cells were serum starved for 2 hours. Cells were then pre-incubated with CB1 antibody (300 nM), AM6545 (CB1 neutral antagonist) and negative control (BRIL binder) for half an hour. […] Surface expression of CB1 was stained with anti-CB1 N-terminus mouse monoclonal antibody from R&D and the mean fluorescence intensity (MFI) was determined using flow cytometry (Guava).

Compound	ADCC IC50 (Daudi cells [1]; 25:1 E/T ratio) [ng/mL]	ADCC IC50 (Daudi cells [1]; 50:1 E/T ratio) [ng/mL]	CDC IC50 (Daudi cells [2]) [ng/mL]	effect on cAMP levels without exogenous agonist / mechanism [3]	effect on WIN55,212 induced CB1 receptor internalization [4]
Rituximab: positive control antibody in ADCC and CDC assays	0.92	1.19	399	–	–
Cc1c(C(=O)NN2CCS(=O)(=O)CC2)nn(-c2ccc(Cl)cc2Cl)c1-c1ccc(C#CCCC#N)cc1 [AM6545, reference compound]	–	–	–	did not affect cAMP levels	blocked
